{
  "source": "patent US8841342B2",
  "about": "“Carrier” (Vital Health Sciences Pty. Ltd., priority 2002, dated 2014)",
  "key": {"[1]": {"experiment": "Transdermal delivery of estradiol and estradiol phosphate in ovariectomised hairless rats, total estrogens RIA in plasma", "method": "Animals: 23 female albino hairless rats were ovariectomised under isoflurane-induced anaesthesia and allowed to recover for 10 days prior to experimentation.\nBlood was collected into EDTA tubes, then centrifuged at 5000 rpm for 10 minutes. Plasma was removed and stored at −80° C. until assayed.\n20 μl was transferred to an Eppendorf tube and the solvent was evaporated in a nitrogen stream. Then 0.999 g of the carrier cream from example 1 was added, and mixed with a glass rod and centrifuged. This was repeated 5 times. Final concentration=4.90 μg/ml.\n20 μl was transferred to an Eppendorf tube and the solvent was evaporated in a nitrogen stream. Then 1.003 g of the carrier cream from example 1 was added, and mixed with a glass rod and centrifuged. This was repeated 5 times. Final concentration=4.89 μg/ml.\n20 μl of these solutions was directly applied to the skin.\nEach formulation was applied to the dorsal skin of an anaesthetised rat in an area of approximately 4 cm^2 marked with an indelible felt tip marker. […] The formulation was ‘rubbed’ in until it appeared to have been absorbed into the skin, which took between 5-10 min. […]\nThe standard curve range for this assay is 2.5-100 pg/ml (r^2=−0.943). Extraction efficiency was determined through a series of spiking assays and was between 90 to 98% using diethyl ether as the extraction solvent for rat plasma and organs. […]"}, "[2]": {"experiment": "Acute transdermal penetration of 3H-estradiol and 3H-estradiol phosphate in the hairless rat", "type": "in vivo, female albino hairless rats", "conditions": "24 hour period", "method": "Animals: 6 female albino hairless rats were used in this study (n=3 per treatment group).\nTransdermal Formulation Preparation and Application: ^3H-E and ^3H-EP were provided by Vital Health Sciences Pty Ltd and prepared in formula approximately 1 hour before application in the carrier cream from Example 1.\nThe solvents from both ^3H-E and ^3H-EP were evaporated under a stream of nitrogen. Once completely dry 0.498 g of the carrier cream of example 1 was added to ^3H-E and 0.502 g to ^3H-EP and mixed with a glass rod and centrifuged for 1 minute. This was repeated 5 times.\nEach formulation was applied to the dorsal skin of an anaesthetised rat in an area of approximately 4 cm^2 marked with an indelible felt tip marker. […] The formulation was ‘rubbed’ in until it appeared to have been absorbed into the skin, which took between 5 to 10 minutes. A tegaderm (3M) patch was applied to the area to prevent animals from removing the formulation."}, "[3]": {"experiment": "Transdermal delivery of testosterone and testosterone phosphate in ovariectomised hairless rats, total testosterone in plasma", "type": "in vivo, Female albino hairless rats", "conditions": "for concentration of testosterone in blood: topical 1 μg in carrier of Example 1", "experimental": "Animals: 12 Female albino hairless rats were ovariectomised under isoflurane-induced anesthesia and allowed to recover for 15 days prior to experimentation.\nPlasma was removed and stored at −80° C. until assay.\nTestosterone Phosphate (TP): 4.41 mg of TP was dissolved in 15 ml of water and then made up to 100 ml with ethanol. […] This was repeated 5 times.\nTestosterone (T): 3.94 mg of T was dissolved in 15 ml of water and then made up to 100 ml with ethanol. […] This was repeated 5 times."}, "[4]": {"conditions": "cited from earlier work"}},
  "data": [
    {"compound": "C[C@]12CC[C@@H]3c4ccc(O)cc4CC[C@H]3[C@@H]1CC[C@@H]2OP(=O)(O)O", "note": "[EP, estradiol 3:phosphate]", "values": [
      {"measurement": "plasma concentration of the hormone, EP versus E treatment", "setting": "[1]; equivalent doses in carrier of Example 1, over 24 hours", "result": "at least twice the plasma concentration of the hormone compared to the E treatment"},
      {"measurement": "inflammatory symptoms (erythema, oedema) at the application site", "setting": "[1]; topical in carrier cream of Example 1", "result": "neither E or EP treatment produced any inflammatory symptoms"},
      {"measurement": "levels in epidermis and dermis", "setting": "[2]", "result": "Higher levels of EP were found in the epidermis and dermis"}
    ]},
    {"compound": "C[C@]12CC[C@H]3[C@@H](CCC4=CC(=O)CC[C@@]43C)[C@@H]1CC[C@@H]2O", "note": "[T, testosterone]", "values": [
      {"measurement": "concentration of testosterone in blood", "setting": "[3]", "result": "increased"},
      {"measurement": "maximum concentration of total testosterone in plasma (mean±SD)", "setting": "[3]; topical 1 μg in carrier of Example 1, baseline subtracted", "result": "30.90 ± 11.00", "unit": "pg/mL"}
    ]},
    {"compound": "C[C@]12CC[C@@H]3c4ccc(O)cc4CC[C@H]3[C@@H]1CC[C@@H]2O", "note": "[E, estradiol]", "values": [
      {"measurement": "mean blood levels of estradiol 24 hours post dose", "setting": "[4]; 3 mg daily over 30 cm2, carrier with padimate O, 4 women, 9 days", "result": "53 ± 7", "unit": "pg/mL"},
      {"measurement": "improvement of circulating estradiol from baseline", "setting": "[4]; baseline 13±5 pg/ml", "result": 4, "unit": "fold"}
    ]},
    {"compound": "testosterone phosphate [TP]", "values": [
      {"measurement": "concentration of testosterone in blood", "setting": "[3]", "result": "increased"}
    ]}
  ]
}
